The text below walks through data of US8436043B2 (Takeda Pharmaceutical Company Limited, priority 2008, dated 2013).

The structures appear in SMILES notation.

The target of the first experiment is T1, human glucagon receptor (Homo sapiens, UniProt P47871).
T1 construct: made in house; host or cells: FreeStyle CHO cells, transient transfection with pMSRαneo/hGCGR; membrane fraction (35,000 rpm pellet)
T1 sequence (P47871 26-477): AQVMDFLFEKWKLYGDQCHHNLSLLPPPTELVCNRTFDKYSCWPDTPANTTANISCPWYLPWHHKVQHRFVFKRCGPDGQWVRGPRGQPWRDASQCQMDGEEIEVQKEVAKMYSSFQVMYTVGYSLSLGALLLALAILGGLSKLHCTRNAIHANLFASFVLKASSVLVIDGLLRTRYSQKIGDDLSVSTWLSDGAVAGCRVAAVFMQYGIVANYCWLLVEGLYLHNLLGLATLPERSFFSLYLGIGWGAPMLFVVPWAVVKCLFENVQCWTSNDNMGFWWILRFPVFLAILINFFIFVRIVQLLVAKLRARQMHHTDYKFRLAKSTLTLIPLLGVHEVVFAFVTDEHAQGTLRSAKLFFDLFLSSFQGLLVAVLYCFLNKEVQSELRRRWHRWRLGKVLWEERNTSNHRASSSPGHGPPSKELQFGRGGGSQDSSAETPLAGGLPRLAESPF
Kind of experiment: Glucagon binding inhibitory activity ([125I]-glucagon binding to glucagon receptor membrane protein). The note with it: test compound 10 μM; 0.4% DMSO = 0%, non-labeled glucagon 1 μM = 100%. How it is done: The glucagon binding inhibitory action of the compound of the present invention was evaluated by the following method.
(1) Cloning of Human Glucagon Receptor Gene
Human glucagon receptor gene was cloned by PCR reaction using human pancreas Marathon-ready cDNA (Clontech) as a template and the following primer set.
PCR reaction was performed using Advantage 2 polymerase (Clontech) and according to the attached protocol. The obtained PCR product was electrophoresed on an agarose gel (1%). An about 1.4 kb of DNA fragment containing a glucagon receptor gene was recovered from the gel and digested with restriction enzymes EcoRI and NotI. DNA treated with the restriction enzymes was electrophoresed on an agarose gel (1%). An about 1.4 kb of DNA fragment was recovered and ligated to plasmid pMSRαneo digested with restriction enzymes EcoRI and NotI to construct a human-type glucagon receptor expression plasmid DNA “pMSRαneo/hGCGR”.
(2) Preparation of Glucagon Receptor Membrane Protein
A human-type glucagon receptor was expressed using FreeStyle CHO Expression System (Invitrogen). A transient expression in FreeStyle CHO cell was performed using a human-type glucagon receptor expression plasmid DNA “pMSRαneo/hGCGR” and according to the manual attached to the FreeStyle CHO Expression System. The above-mentioned DNA was transfected and the cultured with shaking for 2 days (37° C., 8% CO2, 125 rpm). 2400 ml of culture medium was centrifuged at 2,000 rpm for 10 min and the cells were collected. The collected cells were washed with PBS, suspended in homogenate buffer [10 mM NaHCO3 (pH 7.4), 1 mM EDTA, Complete EDTA-free (Roche, 1 tablet/50 ml)] and disrupted by polytron cell disrupter (Kinematica AG). Disruption solution was centrifuged at 2,000 rpm for 10 min and the supernatant was collected.
(3) Measurement of Glucagon Binding Inhibitory Activity
The plate was stood for 90 min at room temperature. The reaction solution was transferred from the reaction plate to a 96 well unifilter GF/C plate (Perkin Elmer Inc.) using a cell harvester (Perkin Elmer Inc.) and the membrane fraction was collected on the filter by suction. The filter was presoaked in 2 mg/ml of polyethyleneimine to prevent non-specific adsorption of labeled ligand. The filter was washed 4 times with a reaction buffer and dried for 2 hr at 42° C. To each well was added 25 μl of scintillator (MicroScint0; Perkin Elmer Inc.), and the fluorescence amount was measured using a microplate scintillation counter (TopCount NXT™; Perkin Elmer Inc.).
In addition, the inhibitory rate (%) of the well added with the test compound (10 μM; containing 0.4% DMSO) was calculated, using the reaction rate of the well added only with 0.4% DMSO as 0% inhibitory rate, and the reaction rate of the well added with non-labeled glucagon (final concentration 1 μM) as 100% inhibitory rate.
In the case of `COc1ccc2oc(C(Nc3ccc(C(=O)N(C)CCC(=O)O)cc3)C3CCCCC3)c(C)c2c1` (stereo not drawn) [Example A43, 3-{[(4-{[cyclohexyl(5-methoxy-3-methyl-1-benzofuran-2-yl)methyl]amino}phenyl)carbonyl](methyl)amino}propanoic acid], the “inhibitory rate (%) at 10 μM” value is 80%.

As for `Cc1c(C(Nc2ccc(C(=O)N(C)CCC(=O)O)nc2)C2CCCCC2)sc2ccccc12` (stereo not drawn) [Example A60, 3-{[(5-{[cyclohexyl(3-methyl-1-benzothiophen-2-yl)methyl]amino}pyridin-2-yl)carbonyl](methyl)amino}propanoic acid], the “inhibitory rate (%) at 10 μM” value is 85%.

The experiment is the same for the next values; noted with them: test compound 10 μM; 0.4% DMSO = 0%, non-labeled glucagon 1 μM = 100%; read-out: inhibitory rate (%) at 10 μM.
Consider `COc1cccc(-n2cc(C(Nc3ccc(C(=O)N(C)CCC(=O)O)cc3)C3CCCCC3)c(C)n2)c1` (stereo not drawn) [Example 70, 3-[{[4-({cyclohexyl[1-(3-methoxyphenyl)-3-methyl-1H-pyrazol-4-yl]methyl}amino)phenyl]carbonyl}(methyl)amino]propanoic acid], for which the inhibition at 10 µM was determined as 75%.

With `Cc1nn(-c2ncc(C(F)(F)F)cc2Cl)cc1C(Nc1ccc(C(=O)NCCC(=O)O)cc1)C1CCCCC1` (stereo not drawn) [Example 31, 3-{[(4-{[{1-[3-chloro-5-(trifluoromethyl)pyridin-2-yl]-3-methyl-1H-pyrazol-4-yl}(cyclohexyl)methyl]amino}phenyl)carbonyl]amino}propanoic acid], the inhibition at 10 µM came out at 67%.

For `Cc1c(C(Nc2ccc(C(=O)N(C)CCC(=O)O)cc2)C2CCCCC2)oc2ccc(OC3CCOCC3)cc12` (stereo not drawn) [Example A82, 3-[{[4-({cyclohexyl[3-methyl-5-(tetrahydro-2H-pyran-4-yloxy)-1-benzofuran-2-yl]methyl}amino)phenyl]carbonyl}(methyl)amino]propanoic acid], the inhibition at 10 µM was determined as 89%.

For `Cc1ccc2oc(C(Nc3ccc(C(=O)N(C)CCC(=O)O)cc3)C3CCCCC3)c(C)c2c1` (stereo not drawn) [Example A91, 3-{[(4-{[cyclohexyl(3,5-dimethyl-1-benzofuran-2-yl)methyl]amino}phenyl)carbonyl](methyl)amino}propanoic acid], the inhibition at 10 µM stood at 79%.

On to `Cc1c(C(Nc2ccc(C(=O)NCCC(=O)O)cc2)C2CCCCC2)oc2ccc(OCc3ccc(Cl)nc3)cc12` (stereo not drawn) [Example A169, 3-{[(4-{[{5-[(6-chloropyridin-3-yl)methoxy]-3-methyl-1-benzofuran-2-yl}(cyclohexyl)methyl]amino}phenyl)carbonyl]amino}propanoic acid], for which the inhibition at 10 µM worked out at 86%.

Take `CCC(CC)C(Nc1ccc(C(=O)NCCC(=O)O)cc1)c1sc2ccccc2c1C` (stereo not drawn) [Example A134, 3-{[(4-{[2-ethyl-1-(3-methyl-1-benzothiophene-2-yl)butyl]amino}phenyl)carbonyl]amino}propanoic acid]: the inhibition at 10 µM turned out to be 82%.

With `CN(CCC(=O)O)C(=O)c1ccc(NC(c2cn(-c3ccc(C(F)(F)F)cn3)nc2C(C)(C)C)C2CCCCC2)cc1` (stereo not drawn) [Example 14, 3-{[(4-{[{3-tert-butyl-1-[5-(trifluoromethyl)pyridin-2-yl]-1H-pyrazol-4-yl}(cyclohexyl)methyl]amino}phenyl)carbonyl](methyl)amino}-propanoic acid], the inhibition at 10 µM was determined as 71%.

For the molecule `Cc1c(C(Nc2ccc(C(=O)N(C)CCC(=O)O)cc2)C2CCCCC2)sc2ncccc12` (stereo not drawn) [Example A143, 3-{[(4-{[cyclohexyl(3-methylthieno[2,3-b]pyridin-2-yl)methyl]amino}phenyl)carbonyl](methyl)amino}propanoic acid], the inhibition at 10 µM worked out at 75%.

With `CCC(CC)C(Nc1ccc(C(=O)N(C)CCC(=O)O)cc1)c1oc2ccc(F)cc2c1C` (stereo not drawn) [Example A72, 3-{[(4-{[2-ethyl-1-(5-fluoro-3-methyl-1-benzofuran-2-yl)butyl]amino}phenyl)carbonyl](methyl)amino}propanoic acid], the inhibition at 10 µM turned out to be 79%.

Regarding `CN(CCC(=O)O)C(=O)c1ccc(NC(c2cn(-c3ccccc3)nc2OCc2ccccc2)C2CCCCC2)cc1` (stereo not drawn) [Example 67, 3-[{[4-({[3-(benzyloxy)-1-phenyl-1H-pyrazol-4-yl](cyclohexyl)methyl}amino)phenyl]carbonyl}(methyl)amino]-propanoic acid], the inhibition at 10 µM is 72%.

`Cc1c(C(C)Nc2ccc(C(=O)N(C)CCC(=O)O)cc2)oc2ccc(OCc3ccccc3)cc12` (stereo not drawn) [Example A166, 3-[{[4-({1-[5-(benzyloxy)-3-methyl-1-benzofuran-2-yl]ethyl}amino)phenyl]carbonyl}(methyl)amino]propanoic acid]: the inhibition at 10 µM stood at 75%.

With `COCc1nn(-c2cccc(OC)c2)cc1C(Nc1ccc(C(=O)N(C)CCC(=O)O)cc1)C1CCCCC1` (stereo not drawn) [Example 76], the inhibition at 10 µM was 68%.

In the case of `COCc1nn(-c2ccc(OC(F)(F)F)cc2)cc1C(Nc1ccc(C(=O)N(C)CCC(=O)O)cc1)C1CCCCC1` (stereo not drawn) [Example 34, 3-[({4-[(cyclohexyl{3-(methoxymethyl)-1-[4-(trifluoromethoxy)phenyl]-1H-pyrazol-4-yl}methyl)amino]phenyl}carbonyl)(methyl)amino]propanoic acid], the inhibition at 10 µM was 79%.

On to `Cc1c(C(Nc2ccc(C(=O)N(C)CCC(=O)O)cc2)C2CCCCC2)sc2ccccc12` (stereo not drawn) [Example A13, 3-{[(4-{[cyclohexyl(3-methyl-1-benzothiophen-2-yl)methyl]amino}phenyl)carbonyl](methyl)amino}propanoic acid], for which the inhibition at 10 µM was found to be 85%.

Turning to `Cc1c(C(Nc2ccc(C(=O)N(C)CCC(=O)O)cc2)C2CCCC2)oc2ccc(F)cc12` (stereo not drawn) [Example A68, 3-{[(4-{[cyclopentyl(5-fluoro-3-methyl-1-benzofuran-2-yl)methyl]amino}phenyl)carbonyl](methyl)amino}propanoic acid], the inhibition at 10 µM was 82%.

As for `CCc1c(C(CC(C)C)Nc2ccc(C(=O)N(C)CCC(=O)O)cc2)oc2ccccc12` (stereo not drawn) [Example A31, 3-{[(4-{[1-(3-ethyl-1-benzofuran-2-yl)-3-methylbutyl]amino}phenyl)carbonyl](methyl)amino}propanoic acid], the inhibition at 10 µM turned out to be 62%.

Take `COCc1nn(-c2ccc(C(F)(F)F)cn2)cc1C(Nc1ccc(C(=O)N(C)CCC(=O)O)cc1)C1CCCCC1` (stereo not drawn) [Example 30, 3-[({4-[(cyclohexyl{3-(methoxymethyl)-1-[5-(trifluoromethyl)pyridin-2-yl]-1H-pyrazol-4-yl}methyl)amino]phenyl}carbonyl)(methyl)amino]propanoic acid]: the inhibition at 10 µM was 75%.

`CCc1nn(-c2cccc(OC)c2)cc1C(Nc1ccc(C(=O)N(C)CCC(=O)O)cc1)C1CCCCC1` (stereo not drawn) [Example 78, 3-[{[4-({cyclohexyl[3-ethyl-1-(3-methoxyphenyl)-1H-pyrazol-4-yl]methyl}amino)phenyl]carbonyl}(methyl)amino]propanoic acid]: the inhibition at 10 µM stood at 69%.

Turning to `Cc1cc(COc2ccc3oc(C(Nc4ccc(C(=O)N(C)CCC(=O)O)cc4)C4CCCCC4)c(C)c3c2)no1` (stereo not drawn) [Example A194, 3-[({4-[(cyclohexyl{3-methyl-5-[(5-methylisoxazol-3-yl)methoxy]-1-benzofuran-2-yl}methyl)amino]phenyl}carbonyl)(methyl)amino]propanoic acid], the inhibition at 10 µM was 88%.

For `Cc1c(C(COc2ccccc2)Nc2ccc(C(=O)NCCC(=O)O)cc2)oc2ccccc12` (stereo not drawn) [Example A94, 3-{[(4-{[1-(3-methyl-1-benzofuran-2-yl)-2-phenoxyethyl]amino}phenyl)carbonyl]amino}propanoic acid], the inhibition at 10 µM amounted to 57%.

`CCCCCCC(Nc1ccc(C(=O)N(C)CCC(=O)O)cc1)c1cc2cc(Cl)ccc2n1-c1cccc(C(F)(F)F)c1` (stereo not drawn) [Example A107, 3-[({4-[(1-{5-chloro-1-[3-(trifluoromethyl)phenyl]-1H-indol-2-yl}heptyl)amino]phenyl}carbonyl)(methyl)amino]propanoic acid]: the inhibition at 10 µM turned out to be 74%.

As for `COc1ccc(-n2cc(C(Nc3ccc(C(=O)NCCC(=O)O)cc3)C3CCCCC3)c(C3CC3)n2)cc1` (stereo not drawn) [Example 46, 3-({[4-({cyclohexyl[3-cyclopropyl-1-(4-methoxyphenyl)-1H-pyrazol-4-yl]methyl}amino)phenyl]carbonyl}amino)propanoic acid], the inhibition at 10 µM was found to be 71%.
